According to ChEMBL document CHEMBL1255237, “Novel variant of the qnrB gene, qnrB12, in Citrobacter werkmanii” (2008):
Converted amounts (≈) assume the structure as drawn. Residues, ends and D or L forms follow the SMILES beside them. *: point of attachment. βNA = c1ccc2cc(N*)ccc2c1

Legend:
Format in all cases: functional
[1] = system: Escherichia coli; experiment: Antimicrobial activity against Escherichia coli TOP10 harboring pCR-Blunt2-TOPO carrying qnrB12 gene of Citrobacter werkmanii isolate CIT3 by broth macrodilution method
[2] = system: Citrobacter werkmanii; experiment: Antimicrobial activity against Citrobacter werkmanii isolate CIT3 harboring parC Leu88Gln mutant gene and qnrB12 gene by broth macrodilution method in presence of 64 ug/ml Phe-Arg-beta-naphthylamide
[3] = system: Escherichia coli; experiment: Antimicrobial activity against Escherichia coli TOP10 harboring empty vector pCR-Blunt2-TOPO by broth macrodilution method
[4] = system: Escherichia coli; experiment: Antimicrobial activity against Escherichia coli TOP10 harboring pCR-Blunt2-TOPO carrying qnrB12 gene of Citrobacter werkmanii isolate CIT2 by broth macrodilution method
[5] = system: Escherichia coli; experiment: Antimicrobial activity against Escherichia coli TOP10 harboring pCR-Blunt2-TOPO carrying qnrB12 gene of Citrobacter werkmanii isolate CIT1 by broth macrodilution method in presence of 64 ug/ml Phe-Arg-beta-naphthylamide
[6] = system: Citrobacter werkmanii; experiment: Antimicrobial activity against nalidixic acid-resistant Citrobacter werkmanii isolate CIT1 harboring gyrA Thr83Ile, parC Ser57Thr mutant gene and qnrB12 gene by broth macrodilution method in presence of 64 ug/ml Phe-Arg-beta-naphthylamide
[7] = system: Citrobacter werkmanii; experiment: Antimicrobial activity against Citrobacter werkmanii isolate CIT2 harboring qnrB12 gene by broth macrodilution method
[8] = system: Escherichia coli; experiment: Antimicrobial activity against Escherichia coli TOP10 harboring pCR-Blunt2-TOPO carrying qnrB12 gene of Citrobacter werkmanii isolate CIT3 by broth macrodilution method in presence of 64 ug/ml Phe-Arg-beta-naphthylamide
[9] = system: Citrobacter werkmanii; experiment: Antimicrobial activity against Citrobacter werkmanii isolate CIT3 harboring parC Leu88Gln mutant and qnrB12 gene by broth macrodilution method
[10] = system: Escherichia coli; experiment: Antimicrobial activity against Escherichia coli TOP10 harboring pCR-Blunt2-TOPO carrying qnrB12 gene of Citrobacter werkmanii isolate CIT1 by broth macrodilution method
[11] = system: Escherichia coli; experiment: Antimicrobial activity against Escherichia coli TOP10 harboring empty vector pCR-Blunt2-TOPO by broth macrodilution method in presence of 64 ug/ml Phe-Arg-beta-naphthylamide
[12] = system: Escherichia coli; experiment: Antimicrobial activity against Escherichia coli TOP10 by broth macrodilution method
[13] = system: Escherichia coli; experiment: Antimicrobial activity against Escherichia coli TOP10 by broth macrodilution method in presence of 64 ug/ml Phe-Arg-beta-naphthylamide
[14] = system: Citrobacter werkmanii; experiment: Antimicrobial activity against nalidixic acid-resistant Citrobacter werkmanii isolate CIT1 harboring gyrA Thr83Ile, parC Ser57Thr mutant gene and qnrB12 gene by broth macrodilution method
[15] = system: Citrobacter werkmanii; experiment: Antimicrobial activity against Citrobacter werkmanii isolate CIT2 harboring qnrB12 gene by broth macrodilution method in presence of 64 ug/ml Phe-Arg-beta-naphthylamide
[16] = system: Escherichia coli; experiment: Antimicrobial activity against Escherichia coli TOP10 harboring pCR-Blunt2-TOPO carrying qnrB12 gene of Citrobacter werkmanii isolate CIT2 by broth macrodilution method in presence of 64 ug/ml Phe-Arg-beta-naphthylamide

| Compound | MIC [1] [µg/mL] | MIC [2] [µg/mL] | MIC [3] [µg/mL] | MIC [4] [µg/mL] | MIC [5] [µg/mL] | MIC [6] [µg/mL] | MIC [7] [µg/mL] | MIC [8] [µg/mL] | MIC [9] [µg/mL] | MIC [10] [µg/mL] | MIC [11] [µg/mL] | MIC [12] [µg/mL] | MIC [13] [µg/mL] | MIC [14] [µg/mL] | MIC [15] [µg/mL] | MIC [16] [µg/mL] |
| --- | --- | --- | --- | --- | --- | --- | --- | --- | --- | --- | --- | --- | --- | --- | --- | --- |
| O=C(O)c1cn(C2CC2)c2cc(N3CCNCC3)c(F)cc2c1=O [CIPROFLOXACIN] | 0.0625 (≈ 0.189 µM) | 0.0312 | 0.00195 (≈ 0.00589 µM) | 0.0625 (≈ 0.189 µM) | 0.0625 | 0.25 | 0.5 (≈ 1.51 µM) | 0.0625 | 0.0625 (≈ 0.189 µM) | 0.0625 (≈ 0.189 µM) | 0.00195 | 0.00195 (≈ 0.00589 µM) | 0.00195 | 1 (≈ 3.02 µM) | 0.0312 | 0.0625 |
| CCn1cc(C(=O)O)c(=O)c2ccc(C)nc21 [NALIDIXIC ACID] | 8 (≈ 34.4 µM) | 0.25 | 2 (≈ 8.61 µM) | 8 (≈ 34.4 µM) | 1 | 16 | 8 (≈ 34.4 µM) | 1 | 8 (≈ 34.4 µM) | 8 (≈ 34.4 µM) | 0.25 | 2 (≈ 8.61 µM) | 0.25 | > 256 | 0.5 | 1 |
| N=C(N)NCCC[C@H](NC(=O)[C@@H](N)Cc1ccccc1)C(=O)Nc1ccc2ccccc2c1 [PABETAN] (H-Phe-Arg-βNA) | > 256 |  | > 256 | > 256 |  |  | 256 (≈ 573 µM) |  | 256 (≈ 573 µM) | > 256 |  | > 256 |  | > 256 |  |  |
